Counter-ions that a name gives are not always drawn.
What follows are compounds tested on anaphylactic asthma in guinea-pigs (assay: Antagonism to anaphylactic asthma in guinea-pigs (passively sensitized with rabbit anti-egg albumin antiserum, egg albumin aerosol challenge; survival)). Settings: 10 mg/kg, oral, 30 minutes before egg albumin aerosol challenge; dose group 3 or 5 animals (* = 3 guinea-pigs: Examples 10-(5) and 11).
Assay type: in vivo, guinea-pig (male Hartley strain)
Experimental: Equal volumes of a saline solution of egg albumin (200 mg/ml) and of Freund's Complete Adjuvant were mixed and emulsified. Each male New Zealand white strain rabbits, each weighing 2 to 2.5 kg., received an intramuscular injection of 0.5 ml of the emulsion in the left and right thigh regions. One week later, they received an intradermal injection of 0.25 ml of a saline solution of egg albumin (concentration: 20 mg/ml) in the different four sites of the dorsal skin surface three times every other week. Blood samples were collected from the carotid artery one week after the last injection.
The level of anaphylactic anti-egg albumin antibodies in pools of sera were determined by passive cutaneous anaphylaxis (PCA) reactions using shaven Hartley strain test guinea-pigs.
Antiserum was serially diluted (two fold) in saline and 0.1 ml of each antiserum dilution were injected intradermally into the dorsal skin surface of the test guinea-pigs. 24 hours after intradermal sensitization,Egg albumin-specific PCA reactions were elicited by intravenous injection of 10 mg of egg albumin in 1 ml of 1% Evans blue dye dissolved in saline. Reactions were read and recorded as the highest dilution of serum evoking threshold PCA reactivity (5 mm diameter).
Male Hartley strain guinea-pigs, weighing 305 to 400 g, were used. Animals were sensitized by an intravenous injection of rabbit antiserum against egg albumin (4000 PCA titer) with 0.5 ml/animal. After 24 hours, animals were placed individually in a plastic chamber of 5.3 liter volume. An aerosol of 5% egg albumin solution was sprayed in the chamber at a rate of 0.16 ml/min with a commercial nebulizer. The test compounds were given to the animals orally 30 minutes before the challenge with the egg albumin solution. Each dose group consisted of 3 or 5 animals. The inhibitory effect of the test compounds was determined from the number of surviving animals more than 2 hours after spray of the antigen.
`CC(=O)CCCN1CCN(C(c2ccccc2)c2ccccc2)CC1.O=C(O)/C=C/C(=O)O` [Example 1, 1-(4-oxo-1-pentyl)-4-benzhydrylpiperazine fumarate] was tested, and the “Inhibitory effect of anaphylactic asthma in guinea-pig (from number of surviving animals more than 2 hours after spray of the antigen)” value (from here on “Inhibitory effect of anaphylactic asthma”) was 100%. `Cl.Cl.O=C(NCCCN1CCN(C(c2ccccc2)c2ccccc2)CC1)c1ccccc1` [Example 7, 1-(3-benzoylaminopropyl)-4-benzhydrylpiperazine dihydrochloride] was tested, and the “Inhibitory effect of anaphylactic asthma” value was 100%. With `COc1ccccc1C(=O)NCCCN1CCN(C(c2ccccc2)c2ccccc2)CC1.Cl.Cl` [Example 10-(2), 1-[3-(2-Methoxybenzoylamino)propyl]-4-benzhydrylpiperazine dihydrochloride] the “Inhibitory effect of anaphylactic asthma” value was 80%. With `CS(=O)(=O)Nc1ccccc1C(=O)NCCCN1CCN(C(c2ccccc2)c2ccccc2)CC1` [Example 10-(5), 1-[3-(2-Methanesulfonylaminobenzoylamino)propyl]-4-benzhydrylpiperazinedihydrochloride] the “Inhibitory effect of anaphylactic asthma” value was 100%. For `O=C(Cn1c(=O)sc2ccccc21)NCCCN1CCN(C(c2ccccc2)c2ccccc2)CC1` [Example 10-(8), 1-[3-[2-(2-Oxo-benzothiazolin-3-yl)acetylamino]propyl]-4-benzhydrylpiperazine], the “Inhibitory effect of anaphylactic asthma” value was 80%. In the case of `CC(=O)NCCCN1CCN(C(c2ccccc2)c2ccccc2)CC1` [Example 11, 1-(3-acetylaminopropyl)-4-benzhydrylpiperazine], the “Inhibitory effect of anaphylactic asthma” value is reported as 100%. `CS(=O)(=O)Nc1cccc(CN2CCN(C(c3ccccc3)c3ccccc3)CC2)n1.Cl.Cl` [Example 13, 1-(6-methanesulfonylaminopyridin-2-ylmethyl)-4-benzhydrylpiperazine dihydrochloride] was tested, and the “Inhibitory effect of anaphylactic asthma” value was 100%.

From patent US4591590A, “Benzhydrylpiperazine derivatives, processes for the preparation thereof and pharmaceutical composition comprising the same” (Fujisawa Pharmaceutical Co., Ltd., priority 1982, dated 1986)
